Here are results for four molecules from patent US12576073B2, “Antiarrhythmic formulation” (InCarda Therapeutics, Inc., priority 2019, dated 2026).

Series [1] is described as follows: Solubility comparison of different flecainide salts in 0.1M acid media. Particulars: for pH: Media (0.1M).
Series [2] deals with Beagle dogs. The series is described as follows: 14-day repeat dose face mask inhalation toxicity study in dogs. As to conditions: dog, in vivo. The source says: This example describes a 14-day repeated-dose toxicity study via face mask inhalation with 14 day recovery in dogs.
In addition to the aerosol drug concentration, the aerosol particle size distribution was also characterized. The particle size average MMAD and GSD for the Low-, Mid-, and High-dose groups were 2.38 (1.79), 2.03 (1.87) and 2.08 (1.79) microns, respectively, and 1.74 (1.88) microns for vehicle control group. […] Chamber oxygen levels were monitored throughout the exposures. Main study animals were sacrificed on Day 15. Recovery animals were sacrificed on Day 29 following a 14-day recovery period. Endpoints included clinical observations, body weights, ophthalmology, clinical pathology, urinalysis, gross pathology, histopathology, and bioanalytical and toxicokinetic analyses.

In series [3] the test system is patients with recent onset of symptomatic paroxysmal atrial fibrillation. Kind of series: FLE-002 (INSTANT) Phase 2 study: conversion of AF to sinus rhythm. Particulars: within 60 minutes of dosing, evaluable patients. The format is in vivo, human. The source says: Patient eligibility for this study is generally consistent with eligibility for IV flecainide. 18 years and older, both male and female sexes are eligible for this study. Inclusion and exclusion criteria are summarized in TABLE 18A and TABLE 18B, respectively.
The study consists of 2 parts: Part A and Part B. Part A (dose finding) evaluates the feasibility of administration of IH Flec. Part B will confirm the dose and will include a pilot sub-study to simulate a patient led scenario with medical supervision.
Part A study. […] IH Flec formulations tested in this study include the ones listed in TABLE 19 (*, “CD” denotes a cyclodextrin-based formulation including 10% (w/v) hydroxypropyl β-cyclodextrin, 90 mM acetic acid buffer, and having a pH of 5.2; **, “iCD-SAC” denotes a cyclodextrin-based formulation including 20% β(w/v) hydroxypropyl β-cyclodextrin, 5 mM acetic acid, and 750 μM saccharin, and having a pH of 5.9).
In this study, for inhalation delivery of flecainide, the estimated total lung doses (eTLDs) were calculated to account for losses of flecainide in the inhalation device and losses of flecainide in subjects' mouth and throat. eTLD was thereby used to denote the dose that actually reached the lungs of the subjects. By design, in all nebulizers there can be a residual volume or mass of drug solution that stays in the nebulizer, and there can also be a percentage of the aerosol caught by subject's throat and mouth. For instance, in this study, it was estimated that 30% of the aerosol was lost in subject's throat and mouth. Therefore the eTLD would be: eTLD=(100−30)%*amount of aerosolized drug that left nebulizer=70%*(amount of drug placed in nebulizer−amount of drug staying in nebulizer).
The AeroEclipse®II BAN inhaler was used for nebulization and inhalation of the exemplary flecainide formulations. It is available as an approved device in several countries across the world including European countries, USA, and Canada. […]

Series [4] can be described thus: FLE-002 (INSTANT) study: plasma levels of flecainide (Cmax). It counts as in vivo. As to conditions: human, inhaled, oral inhalation.
Series [5] in a line: Solubility of flecainide in D/L-lactic acid media. The format is physicochemical. Particulars: thermodynamic from solid. The method, then:
D-lactic acid, L-lactic acid, or DL-lactic acid was slowly added portionwise to the suspension while stirring. The system was left to equilibrate for 30 minutes, and the pH was determined. The pH was then adjusted to 5.2-6 with NaOH if necessary. After addition of NaOH, the system was again left to equilibrate for 30 minutes before pH was measured. After the desired pH was achieved, the suspension was stirred (1000 rpm) at ambient temperature for 48 hours. At 24 hours and 48 hours of stirring, samples of each solution were centrifuged at 10000 rpm for 2 minutes and filtered with a 0.45 μm membrane to obtain supernatant for pH determination and HPLC analysis. Solids from each sample were also characterized by X-ray powder diffraction (XRPD) analysis.

The test system of series [6] is patients with recent onset of symptomatic paroxysmal atrial fibrillation. Particulars: inhaled, Total of all dose groups (N = 99).
Series [7] has the same test system. The series is described as follows: FLE-002 (INSTANT) study: QRS interval from 12-lead ECG. The format is in vivo, human. As to conditions: change from baseline.
Series [8] in a line: physchem. As to conditions: aqueous buffer.
Series [9] in a line: Solubility of flecainide acetate in binary, ternary and quaternary acid mixtures. As to conditions: acid mixture (acetic/nitric/sulfuric acid), 25 °C, aqueous buffer, thermodynamic from solid.
Series [10] in a line: physchem.
The nature of series [11]: physchem. Particulars: Solubility (mg/mL). The format is physicochemical.
Series [12] in a line: Viscosity and complexation efficiency of flecainide acetate-HPβCD solutions. It counts as physicochemical. Particulars: solutions adjusted to pH 5.2 with NaOH. From the text:
In this example and the following examples, the (HP)-β-cyclodextrin used is “Cavitron W7 HP7 PHARMA”. The manufacturer (Ashland) specifies: <1.5% beta cyclodextrin (our batch had 1%) and molar substitution is between 0.86 and 1.14 (our batch had 1.05). From the manufacturer's brochure, the typical degree of substitution is 6.0 to 8.0 with an approximate average MW of 1520.
Beyond this concentration, the aerosol output rate can diminish slightly.

Series [13] in a line: physchem. As to conditions: thermodynamic from solid. The source says:
The suspension was then magnetic stirred (1000 r/min) at RT for 24 hrs or 48 hrs.

≈ marks a conversion by molar mass, not a printed value. Structures can show the parent of a compound that is named as a salt. Where two headings read alike, the source gives them in different places.

Take flecainide nitrate [Nitric Acid]: the pH in series [1] was found to be 4.0.

For the molecule `O=C(NCC1CCCCN1)c1cc(OCC(F)(F)F)ccc1OCC(F)(F)F` (stereo not shown) [flecainide], the “clinical observation associated with exposure” value in series [2] is “labored respiration during or immediately post exposure”. Further, in series [3] (30 mg eTLD), the “Conversion Rate (AF to SR)” value is given as 1/10 (10%). Moreover, in series [3] (60 mg eTLD), the “Conversion Rate (AF to SR)” value is 7/20 (35%). The “Conversion Rate (AF to SR)” value in series [3] (90 mg eTLD) is reported as 7/21 (33%). Moreover, in [4] (30 mg, 30 mg eTLD, read-out: Cmax (mean ± SD)), the Cmax is 127 ± 99.5 ng/mL. Moreover, the Cmax in [4] (30 mg, 30 mg eTLD, read-out: Cmax Range) was 5.8 to 69 ng/mL. Moreover, the Cmax in [4] (60 mg, 60 mg eTLD, read-out: Cmax (mean ± SD)) worked out at 199 ± 222 ng/mL. Further, the Cmax in series [4] (60 mg, 60 mg eTLD, read-out: Cmax Range) fell in the range of 6.6 to 817 ng/mL. In series [4] (90 mg, 90 mg eTLD, read-out: Cmax (mean ± SD)), the Cmax came out at 248 ± 207 ng/mL. Moreover, in [4] (90 mg, 90 mg eTLD, read-out: Cmax Range), the Cmax fell in the range of 17 to 834 ng/mL. The molecule also yielded a solubility at 24 h in series [5] (20% w/v HPβCD in water with D-lactic acid, aqueous with cosolvent or surfactant or cyclodextrin, 20% w/v HPβCD, D-lactic acid, pH 5.8) of 84.8 mg/mL (≈ 205 mM). The same molecule yielded a solubility at 48 h in series [5] (20% w/v HPβCD in water with D-lactic acid, aqueous with cosolvent or surfactant or cyclodextrin, 20% w/v HPβCD, D-lactic acid, pH 5.5) of 88.4 mg/mL (≈ 213 mM). For the same molecule, in series [5] (20% w/v HPβCD in water with L-lactic acid, aqueous with cosolvent or surfactant or cyclodextrin, 20% w/v HPβCD, L-lactic acid, pH 6.3), the solubility at 24 h stood at 87.6 mg/mL (≈ 211 mM). The molecule also returned a solubility at 48 h in series [5] (20% w/v HPβCD in water with L-lactic acid, aqueous with cosolvent or surfactant or cyclodextrin, 20% w/v HPβCD, L-lactic acid, pH 6) of 89.3 mg/mL (≈ 216 mM). The solubility at 24 h in [5] (HPβCD solution with DL-lactic acid, aqueous with cosolvent or surfactant or cyclodextrin, 20% w/v HPβCD, DL-lactic acid, pH 6.5) turned out to be 72.4 mg/mL (≈ 175 mM). For the same molecule, in [5] (pure water with D-lactic acid, aqueous buffer, no excipient (pure water), D-lactic acid, pH 5.1), the concentration in solution (solubility at 24 h) came to 90.1 mg/mL (≈ 217 mM). The molecule also returned a solubility at 48 h in [5] (pure water with D-lactic acid, aqueous buffer, no excipient (pure water), D-lactic acid, pH 5.4) of 91 mg/mL (≈ 220 mM). The same molecule returned a solubility at 24 h in series [5] (pure water with DL-lactic acid, aqueous buffer, no excipient (pure water), DL-lactic acid, pH 6.1) of 76.3 mg/mL (≈ 184 mM). In addition, the concentration in solution in series [5] (pure water with DL-lactic acid, aqueous buffer, no excipient (pure water), DL-lactic acid, pH 6) (solubility at 48 h) came to 73.4 mg/mL (≈ 177 mM). In addition, the solubility at 24 h in series [5] (pure water with L-lactic acid, aqueous buffer, no excipient (pure water), L-lactic acid, pH 5.6) was 96.6 mg/mL (≈ 233 mM). This molecule yielded a solubility at 48 h in [5] (pure water with L-lactic acid, aqueous buffer, no excipient (pure water), L-lactic acid, pH 5.1) of 97.8 mg/mL (≈ 236 mM). Further, in [6], the “Adverse events: Cough” value is on record as 51 (52) n (%), the “Adverse events: Dizziness” value is 5 (5) n (%), the “Adverse events: Dysphagia” value was 9 (9) n (%) and the “Adverse events: Dyspnea” value is recorded as 6 (6) n (%). For the same molecule, in series [6], the “Adverse events: Gastrointestinal disorders” value was 23 (23) n (%), the “Adverse events: Hypotension” value is 7 (7) n (%), the “Adverse events: Nervous system disorders” value is given as 7 (7) n (%) and the “Adverse events: Oropharyngeal pain” value is 14 (14) n (%). Further, in [6], the “Adverse events: Respiratory, thoracic and mediastinal disorders” value is 60 (61) n (%); the “Adverse events: Salivary hypersecretion” value is listed as 8 (8) n (%); the “Adverse events: Throat irritation” value is on record as 12 (12) n (%); the “Adverse events: Vascular disorders” value was 10 (10) n (%). In addition, in [6], the “Patients with at least one TEAE” value is 80 (81) n (%); the “Patients with at least one TEAE, Moderate or Severe” value is on record as 35 (35) n (%); the “Patients with at least one TEAE, Severe” value is 2 (2) n (%); the “Patients with at least one TEAE, Study-drug Related” value is reported as 74 (75) n (%). Also, in [6], the “Patients with at least one TESAE” value is on record as 7 (7) n (%); the “Patients with at least one TESAE, Moderate or Severe” value was 6 (6) n (%); the “Patients with at least one TESAE, Severe” value was 2 (2) n (%); the “Patients with at least one TESAE, Study-drug Related” value was 4 (4) n (%). The ΔQRSmax in series [7] (30 mg eTLD) was found to be 5.5 ± 13.1 ms. The same molecule displayed a ΔQRSmax in series [7] (60 mg eTLD) of 4.2 ± 4.6 ms. The ΔQRSmax in [7] (90 mg eTLD) turned out to be 4.1 ± 3.2 ms.

Consider `O=C(NCC1CCCCN1)c1cc(OCC(F)(F)F)ccc1OCC(F)(F)F` (stereo not shown) [Hydrochloric Acid, flecainide hydrochloride], for which the solubility in series [8] (Concentration (mg/mL) Freebase) was 5.34 mg/mL. The pH in series [1] (hydrochloride) is recorded as 5.0.

As for `O=C(NCC1CCCCN1)c1cc(OCC(F)(F)F)ccc1OCC(F)(F)F` (stereo not shown) [flecainide acetate], the solubility in [9] was 82.4 mg/mL; in series [10] (HPβCD solution with acetic acid, pH 4.9, aqueous with cosolvent or surfactant or cyclodextrin), 136 mg/mL; in series [10] (HPβCD solution with acetic acid, pH 5.1, aqueous with cosolvent or surfactant or cyclodextrin), 135 mg/mL; in series [10] (HPβCD solution with acetic acid, pH 5.2, aqueous with cosolvent or surfactant or cyclodextrin), 135 mg/mL; in series [10] (HPβCD solution with acetic acid, pH 5.5, aqueous with cosolvent or surfactant or cyclodextrin), 131 mg/mL; in [10] (HPβCD solution without acetic acid, pH 6.3, aqueous with cosolvent or surfactant or cyclodextrin) it was 125 mg/mL. Also, the solubility in series [11] (pH 5.3, aqueous with cosolvent or surfactant or cyclodextrin) was 55 mg/mL; in series [11] (pH 5.5, aqueous with cosolvent or surfactant or cyclodextrin), 69.7 mg/mL; in series [8], 64 mg/mL; in [13] (water, solubility of flecainide acetate water solution) it was roughly 60 mg/mL. In addition, in [12], the “HPβCD molecules complexed with flecainide acetate” value came out at 80%. Moreover, the solubility at 48 h is 110 mg/mL in series [13] (aqueous with cosolvent or surfactant or cyclodextrin, 48 hrs Flecainide Acetate Solubility); 105 mg/mL in series [13] (aqueous with cosolvent or surfactant or cyclodextrin, solubility (48 hrs), calculated as freebase); 65.5 mg/mL in series [13] (water, 48 hrs Flecainide Acetate Solubility). In addition, the solubility at 24 h in [13] (aqueous with cosolvent or surfactant or cyclodextrin, maximum solubility, calculated as freebase) was 125 mg/mL. In addition, in [1], the pH stood at 4.6. The “effect of addition of sodium chloride (e.g. saline) to the formulation” value in series [1] (XRPD confirmed form conversion) was “precipitation and loss of solubility”.
